# Measured values published in patent US11072588B2, “Barbituric acid derivatives comprising cationic and lipophilic groups” (UNIVERSITETET I TROMSØ—NORGES ARKTISKE UNIVERSITET, priority 2017, dated 2021).
# Read-outs that look alike come from different tables or passages of the source.
# Key:
# S. aureus IHT 99040 = assay: MIC, multi-resistant clinical isolate; format: cell-based, Staphylococcus aureus; settings: for selectivity index (EC50/MIC): RBC EC50 / MIC; for MIC: Staphylococcus aureus, IHT99040, read-out: Antimicrobial activity (MIC)
# Protocol: (§1) Working solutions of the test derivatives were prepared with up to 100% DMSO and stored at −20° C. If necessary, the solutions were heated to 40-80° C. before testing to facilitate complete dissolution. Double-distilled water was used in all dilutions prepared. […] A microdilution susceptibility test was used for MIC determination according to Clinical and Laboratory Standards Institute, “Methods for Dilution Antimicrobial Sisceptibility Tests for Bacteria That Graw Aerobically”, Approved Standard M07-A9, edition 2012, with modifications as described by Igumnova et al (Bioorg Med Chem, 2016, 24 (22), 5884-5894).
# (§2) Briefly, the bacterial inoculum was adjusted to approximately 2.5-3×10^4 cells/mL in Mueller-Hinton broth (MHB, Difco Laboratories, USA), and incubated in a ratio of 1:1 with test derivatives in polystyrene 96-well flat-bottom microplates (NUNC, Roskilde, Denmark). Positive growth control (without test derivatives) and negative control (without bacteria) were included. The reference antibiotic was oxytetracycline hydrochloride (Sigma Aldrich, Saint Louis, Mo., USA). The microplates were incubated in an EnVision microplate reader (Perkin-Elmer, Turku, Finland) placed in an incubator set to 35° C. for 48 h. The MIC value was defined as the lowest concentration of derivative resulting in no bacterial growth as determined by OD600 measurement. All derivatives were tested in three parallels.
# (§3) The MIC was determined as explained above with some exceptions; working solutions of test derivatives were prepared from concentrated DMSO stocks stored at room temperature, the density of the bacterial inoculum was increased 40× to 1-1.2×10^6 cells/mL, enterococci were incubated in Brain Heart Infusion broth (BHIB, Difco Laboratories, USA), the microplates were incubated for 24 h, and the derivatives were tested in four parallels.
# S. aureus N315 = assay: MIC, multi-resistant clinical isolate; format: cell-based, Staphylococcus aureus; settings: for selectivity index (EC50/MIC): RBC EC50 / MIC, S. aureus N315; for MIC: Staphylococcus aureus, N315, read-out: Antimicrobial activity (MIC)
# Protocol: as §1, §2, §3
# S. aureus NCTC 10442 = assay: MIC, multi-resistant clinical isolate; format: cell-based, Staphylococcus aureus; settings: for selectivity index (EC50/MIC): RBC EC50 / MIC, S. aureus NCTC 10442; for MIC: Staphylococcus aureus, NCTC10442, read-out: Antimicrobial activity (MIC)
# Protocol: as §1, §2, §3
# S. aureus strain 85/2082 = assay: MIC, multi-resistant clinical isolate; format: cell-based, Staphylococcus aureus; settings: for selectivity index (EC50/MIC): RBC EC50 / MIC, S. aureus strain 85/2082; for MIC: Staphylococcus aureus, 85/2082, read-out: Antimicrobial activity (MIC)
# Protocol: as §1, §2, §3
# S. aureus strain WIS = assay: MIC, multi-resistant clinical isolate; format: cell-based, Staphylococcus aureus; settings: for selectivity index (EC50/MIC): RBC EC50 / MIC, S. aureus strain WIS; for MIC: Staphylococcus aureus, read-out: Antimicrobial activity (MIC)
# Protocol: as §1, §2, §3
# E. coli 50676002 = assay: MIC, multi-resistant clinical isolate; format: cell-based, Escherichia coli; settings: for MIC: Escherichia coli, 50676002, read-out: Antimicrobial activity (MIC); for selectivity index (EC50/MIC): RBC EC50 / MIC, E. coli 50676002
# Protocol: as §1, §2, §3
# E. coli 50739822 = assay: MIC, multi-resistant clinical isolate; format: cell-based, Escherichia coli; settings: for MIC: Escherichia coli, read-out: Antimicrobial activity (MIC); for selectivity index (EC50/MIC): RBC EC50 / MIC
# Protocol: as §1, §2, §3
# P. aeruginosa 50692172 = assay: MIC, multi-resistant clinical isolate; format: cell-based, Pseudomonas aeruginosa; settings: for MIC: Pseudomonas aeruginosa, read-out: Antimicrobial activity (MIC); for selectivity index (EC50/MIC): RBC EC50 / MIC
# Protocol: as §1, §2, §3
# P. aeruginosa 50692520 = assay: MIC, multi-resistant clinical isolate; format: cell-based, Pseudomonas aeruginosa; settings: for MIC: Pseudomonas aeruginosa, read-out: Antimicrobial activity (MIC); for selectivity index (EC50/MIC): RBC EC50 / MIC
# Protocol: as §1, §2, §3
# P. aeruginosa K34-73 = assay: MIC, multi-resistant clinical isolate; format: cell-based, Pseudomonas aeruginosa; settings: for MIC: Pseudomonas aeruginosa, K3473, read-out: Antimicrobial activity (MIC); for selectivity index (EC50/MIC): RBC EC50 / MIC, P. aeruginosa K34-73
# Protocol: as §1, §2, §3
# P. aeruginosa K34-7 = assay: MIC, multi-resistant clinical isolate; format: cell-based, Pseudomonas aeruginosa; settings: for MIC: Pseudomonas aeruginosa, K347, read-out: Antimicrobial activity (MIC); for selectivity index (EC50/MIC): RBC EC50 / MIC, P. aeruginosa K34-7
# Protocol: as §1, §2, §3
# P. aeruginosa K44-24 = assay: MIC, multi-resistant clinical isolate; format: cell-based, Pseudomonas aeruginosa; settings: for MIC: Pseudomonas aeruginosa, K4424, read-out: Antimicrobial activity (MIC)
# Protocol: as §1, §2, §3
# A. baumanii K12-21 = assay: MIC, multi-resistant clinical isolate; format: cell-based, Acinetobacter baumannii; settings: for MIC: Acinetobacter baumannii, K1221, read-out: Antimicrobial activity (MIC); for selectivity index (EC50/MIC): RBC EC50 / MIC
# Protocol: as §1, §2, §3
# A. baumanii K44-35 = assay: MIC, multi-resistant clinical isolate; format: cell-based, Acinetobacter baumannii; settings: for MIC: Acinetobacter baumannii, K4435, read-out: Antimicrobial activity (MIC); for selectivity index (EC50/MIC): RBC EC50 / MIC
# Protocol: as §1, §2, §3
# A. baumanii K47-42 = assay: MIC, multi-resistant clinical isolate; format: cell-based, Acinetobacter baumannii; settings: for MIC: Acinetobacter baumannii, K4742, read-out: Antimicrobial activity (MIC); for selectivity index (EC50/MIC): RBC EC50 / MIC
# Protocol: as §1, §2, §3
# A. baumanii K55-13 = assay: MIC, multi-resistant clinical isolate; format: cell-based, Acinetobacter baumannii; settings: for MIC: Acinetobacter baumannii, K5513, read-out: Antimicrobial activity (MIC); for selectivity index (EC50/MIC): RBC EC50 / MIC
# Protocol: as §1, §2, §3
# A. baumanii K63-58 = assay: MIC, multi-resistant clinical isolate; format: cell-based, Acinetobacter baumannii; settings: A. baumanii K63-58, resistant to colistin; for MIC: Acinetobacter baumannii, K6358, 24 h, read-out: Antimicrobial activity (MIC); for selectivity index (EC50/MIC): RBC EC50 / MIC
# Protocol: as §1, §2, §3
# [1] = test system: human metastatic melanoma (A2058, ATCC CRL-11147) cells; assay: Anti-cancer activity against A2058 cells; format: cell-based; settings: A2058, read-out: Anti-cancer IC50
# Protocol: Cytotoxicity of the test compounds was evaluated after 72 hour exposure to human metastatic melanoma (A2058, ATCC CRL-11147) cells.
# A2058 cells were grown overnight (2,000 cells/well), and then incubated with the test compounds (range of concentrations) diluted in MEM Earle's supplemented with gentamycin (10 μg/mL), non-essential amino acids (1%), sodium pyruvate (1 mM), L-alanyl-Lglutamine (2 mM), but without FBS (total volume was 100 μl) for […]. Ten μL of CellTiter 96® AQueous One Solution Reagent (Promega, Madison, Wis., USA) was added, and the plates were then further incubated for 1 hour.
# Absorbance was measured at 485 nm in a DTX 880 Multimode Detector. Results were calculated as % survival compared to negative (assay media) and positive (Triton X-100; Sigma-Aldrich) controls.
# [2] = test system: panel of 30 multi-resistant clinical isolates of Gram-positive and Gram-negative bacteria; assay: MIC screening, ranges over the panel of clinical isolates; format: cell-based
# Protocol: as §1, §2, §3
SMILES,selectivity index (EC50/MIC) (S. aureus IHT 99040),MIC (S. aureus IHT 99040) [µg/mL],selectivity index (EC50/MIC) (S. aureus N315),MIC (S. aureus N315) [µg/mL],selectivity index (EC50/MIC) (S. aureus NCTC 10442),MIC (S. aureus NCTC 10442) [µg/mL],selectivity index (EC50/MIC) (S. aureus strain 85/2082),MIC (S. aureus strain 85/2082) [µg/mL],selectivity index (EC50/MIC) (S. aureus strain WIS),MIC (S. aureus strain WIS) [µg/mL],MIC (E. coli 50676002) [µg/mL],selectivity index (EC50/MIC) (E. coli 50676002),MIC (E. coli 50739822) [µg/mL],selectivity index (EC50/MIC) (E. coli 50739822),MIC (P. aeruginosa 50692172) [µg/mL],selectivity index (EC50/MIC) (P. aeruginosa 50692172),MIC (P. aeruginosa 50692520) [µg/mL],selectivity index (EC50/MIC) (P. aeruginosa 50692520),MIC (P. aeruginosa K34-73) [µg/mL],selectivity index (EC50/MIC) (P. aeruginosa K34-73),other results
"CC(C)(C)c1cc(CC2(Cc3cc(C(C)(C)C)cc(C(C)(C)C)c3)C(=O)N(CCCCN)C(=O)N(CCCCN)C2=O)cc(C(C)(C)C)c1 [7(iii), 1,3-bis(4-aminobutyl)-5,5-bis(3,5-di-tert-butylbenzyl)-pyrimidin-2,4,6(1H,3H,5H)-trione]",(<2),2,(<2),2,(<2),2,(<2),2,(<2),2,8,(<0.5,4,(<1),8,(<0.5),8,(<0.5),16,(<2.5),MIC (P. aeruginosa K34-7): 8 µg/mL; selectivity index (EC50/MIC) (P. aeruginosa K34-7): (<0.5); MIC (P. aeruginosa K44-24): 8 µg/mL; selectivity index (EC50/MIC) (P. aeruginosa K44-24; RBC EC50 / MIC): (<0.5); MIC (A. baumanii K12-21): 4 µg/mL; selectivity index (EC50/MIC) (A. baumanii K12-21): (<1); MIC (A. baumanii K44-35): 4 µg/mL; selectivity index (EC50/MIC) (A. baumanii K44-35): (<1); MIC (A. baumanii K47-42): 4 µg/mL; selectivity index (EC50/MIC) (A. baumanii K47-42): (<1); MIC (A. baumanii K55-13): 4 µg/mL; selectivity index (EC50/MIC) (A. baumanii K55-13): (<1); MIC (A. baumanii K63-58): 4 µg/mL; selectivity index (EC50/MIC) (A. baumanii K63-58): (<1); IC50 [1]: 1 µg/mL; MIC ([2]; read-out: MIC values against all the 30 multi-resistant clinical isolates): 2 to 16 µg/mL
"NCCCCN1C(=O)N(CCCCN)C(=O)C(Cc2ccc3ccccc3c2)(Cc2ccc3ccccc3c2)C1=O [7(iv), 1,3-bis(4-aminobutyl)-5,5-bis(naphtalen-2-yl-methyl)-pyrimidin-2,4,6(1H,3H,5H)-trione]",(30),8,(30),8,(30),8,(30),8,(30),8,16,(15),16,(15),32,(8),32,(8),32,(8),"MIC (P. aeruginosa K34-7): 32 µg/mL; selectivity index (EC50/MIC) (P. aeruginosa K34-7): (8); MIC (P. aeruginosa K44-24): > 32 µg/mL; MIC (A. baumanii K12-21): 32 µg/mL; selectivity index (EC50/MIC) (A. baumanii K12-21): (8); MIC (A. baumanii K44-35): 32 µg/mL; selectivity index (EC50/MIC) (A. baumanii K44-35): (8); MIC (A. baumanii K47-42): 32 µg/mL; selectivity index (EC50/MIC) (A. baumanii K47-42): (8); MIC (A. baumanii K55-13): 32 µg/mL; selectivity index (EC50/MIC) (A. baumanii K55-13): (8); MIC (A. baumanii K63-58): 16 µg/mL; selectivity index (EC50/MIC) (A. baumanii K63-58): (15); IC50 [1]: 1 µg/mL; MIC ([2]; Enterococcus faecium, read-out: MIC values against the Gram-positive isolates of S. aurues and E. faecium): 4 to 16 µg/mL"
